According to patent publication US6150367A, “1-[4-arylpiperazin-1-yl]-3-[2-oxopyrrolidin/piperidin-1-yl]propanes and their use in medical treatments” (Council of Scientific & Industrial Research, priority 1997, dated 2000):

Legend:
[1] = test system: Langendorff perfused rat heart; assay: Compound at reperfusion after brief (16 min.) ischemic insult (Table 3); conditions: 0.001 ug/ml at reperfusion
[2] = test system: anaesthetized cat; assay: Effect on blood pressure and adrenaline vasopressure response in anaesthetized cat, i.v. (Table 2); type: in vivo; conditions: for inhibition at 2 µmol/kg / inhibition at 10 µmol/kg: Felis catus, iv
Protocol: (§1) (a) Cats (2.6-4.0 kg) of either sex anaesthetized with pentobarbitone sodium (40 mg/kg i.v.) and showing basal mean arterial blood plessure below 150 mm (Hg) were categorised as normotensive and ahove 150 mm Hg as hypertensive. Arterial blood pressure (EP) was recorded from one of the carotid artery through a stathum P23 DC pressure transducer and 7P1 low level DC preamplifier on a Grass Model P7 Polygraph, Signals from 7P1 preamplifier were used to trigger 7P4 Tachograph preamplifier for recording the heart rate (HR). Right femoral vein and Trachea were cannulated for intravenous injections and artificial ventilation respectively. Control responses to intravenous injection of noradrenaline (2-4 ug); acetyl choline (1-2 ug); histamine (1-2 ug) and isoprenaline (1-2 ug) were taken before and after the administration of test doses of each compounds.

[3] = test system: Naturally occurring hypertensive cat; assay: Effect on blood pressure, heart rate and adrenaline vasopressor response, anaesthetized naturally occurring hypertensive cat; type: in vivo
Protocol: (§2) 2. Effect on blood pressure, heart rate and adrenaline vasopressor response of anaesthetized (pentobarbitone sodium 40 & 60 mg/kg i.p. in cat and rat respectively) normotensive & hypertensive rat & cat model preparations.
as §1

[4] = test system: Normotensive cat; assay: Effect on blood pressure, heart rate and adrenaline vasopressor response, anaesthetized normotensive cat; type: in vivo
Protocol: as §2, §1

[5] = test system: Hypertensive rat model preparation; assay: Effect on blood pressure, heart rate and adrenaline vasopressor response, hypertensive rat model preparation; type: in vivo
Protocol: as §2

[6] = test system: Spinal transected cat; assay: Site of action: spinal transected cat; type: in vivo; conditions: dose 2-10 umol/kg i.d.
[7] = Site of action: ICV; type: in vivo; conditions: dose 0.34-1.36
[8] = test system: Isolated aortic strip; assay: Isolated aortic strip, endothelin induced contraction
Excerpt: (i) Isolated aortic strip:

[9] = test system: Isolated Guinea pig ileum; assay: Isolated Guinea pig ileum preparation, antihistaminic activity; conditions: 0.5-5.0 ug/ml
[10] = test system: histamine induced bronchoconstriction; assay: Konzett and Rossler preparation, histamine induced bronchoconstriction; conditions: in vivo
Excerpt: (iv) Konzett and Rossler preparation:

[11] = test system: Rat aortic ring; assay: Rat aortic ring preparation, NE induced contraction
Excerpt: (v) Rat aortic ring preparation:

[12] = test system: cat; assay: In vivo drug antagonism studies at 2 uMol dose i.v. in cat; conditions: 2 uMol i.v.
Excerpt: (B) In viva Drug antagonism studies at 2 uMol dose i.v. in cat: […]

[13] = test system: cat; assay: Comparative antihypertensive effect with clinically used antihypertensive drugs at 2 uMol/kg i.v. in cat; type: in vivo
Excerpt: (4) Comparative antihypertensive effect with clinically used antihypertensive drugs at 2 uMol/kg i.v. dose in cat

[14] = Cardioprotective effect against myocardial stunning; conditions: in vivo
[15] = test system: Langendorff perfused rat heart; assay: Langendorff perfused rat heart, prolonged global ischemia, compound given at reperfusion (Table 1)
Protocol: Further, in Langendorff perfused rat heart preparation subjected to even upto […]. global ischemia, the compound at 0.001 ug/ml conc. given at the time of reperfusion revived normal rhythmic contraction started within […]. (Table 1) and incidence of reperfusion induced arrhythmia were abolished.

[16] = 0.001 ug/ml at reperfusion, 90 min. ischemic insult
[17] = 10^-6 M, ischemic insult 45 min

CCc1ccccc1N1CCN(CCCN2CCCC2=O)CC1 [Example 7, 1-[4-(2-ethylphenyl)piperazin-1-Yl]-3-[2-oxopyrrolidin-1-yl]propane]
Percentage recovery 15 min. [1]: 106.06%
Percentage recovery 30 min. [1]: 136.36%

O=C1CCCN1CCCN1CCN(c2cccc(Cl)c2)CC1 [Example 2, 1-[4-(3-chlorophenyl)piperazin-1-yl]-3-[2-oxopyrrolidin-1-yl]propane]
Percentage recovery 15 min. ([1]; listed as C6 H4 -3-C1, n=1): 50.00%
Percentage recovery 30 min. ([1]; listed as C6 H4 -3-C1, n=1): 88.80%
Onset ([1]; listed as C6 H4 -3-Cl, n=1): 3.0 min
Percentage recovery 15 min. ([1]; listed as C6 H4 -3-Cl, n=1): 31.50%
Percentage recovery 30 min. ([1]; listed as C6 H4 -3-Cl, n=1): 39.40%

COc1ccccc1N1CCN(CCCN2CCCC2=O)CC1 [C6 H4-2-OCH3, n=1]
Dur. ([2]; 2.0 umol/kg i.v.): 19 min
Dur. ([2]; 10.0 umol/kg i.v.): 67 min
inhibition at 2 µmol/kg ([2]; 2.0 umol/kg i.v.): 47%
inhibition at 10 µmol/kg ([2]; 10.0 umol/kg i.v.): > 100%
Onset [1]: 2.0 min
Percentage recovery 15 min. [1]: 45.40%
Percentage recovery 30 min. [1]: 59.09%

O=C1CCCN1CCCN1CCN(c2cccc(F)c2)CC1 [Example 4, 1-[4-(3-fluorophenyl)piperazin-1-yl)-3-[2-oxopyrrolidin-1-yl]propane]
Percentage recovery 15 min. [1]: 120.00%
Percentage recovery 30 min. [1]: 180.00%

O=C1CCCN1CCCN1CCN(c2ccccn2)CC1 [2-Pyridyl, n=1]
Dur. ([2]; 2.0 umol/kg i.v.): 16 min
Dur. ([2]; 10.0 umol/kg i.v.): 43 min
inhibition at 2 µmol/kg ([2]; 2.0 umol/kg i.v.): 40%
inhibition at 10 µmol/kg ([2]; 10.0 umol/kg i.v.): -20 to 0%
Onset [1]: 2.0 min
Percentage recovery 15 min. [1]: 47.60%
Percentage recovery 30 min. [1]: 71.40%

CCc1ccc(N2CCN(CCCN3CCCC3=O)CC2)cc1 [Example 6, 1-[4-(4-ethylphenyl)piperazin-1-yl]-3-[2-oxopyrrolidin-1-yl]propane]
Percentage recovery 15 min. [1]: 103.03%
Percentage recovery 30 min. [1]: 60.60%

O=C1CCCN1CCCN1CCN(c2ccc(F)cc2)CC1 [Example 5, 1-[4-(4-fluorophenyl)piperazin-1-yl]-3-[2-oxopyrrolidin-1-yl]propane]
B.P. Fall (%) ([3]; 10 uMol/kg i.d.): 16%
B.P. fall Dur. ([3]; 10 uMol/kg i.d.): 110 min
B.P. Fall (%) ([3]; 20 uMol/kg i.d.): 22%
B.P. fall Dur. ([3]; 20 uMol/kg i.d.): > 156.75 min
B.P. Fall (%) ([4]; 10 uMol/kg i.d.): 22%
B.P. fall Dur. ([4]; 10 uMol/kg i.d.): 85 min
B.P. Fall (%) ([4]; 20 uMol/kg i.d.): 21%
B.P. fall Dur. ([4]; 20 uMol/kg i.d.): > 102.5 min
B.P. Fall (%) ([5]; 5 uMol/kg i.d.): 27%
B.P. fall Dur. ([5]; 5 uMol/kg i.d.): 51 min
Heart rate Pre treatment ([5]; 5 uMol/kg i.d.): 350 beats/min
Heart rate post treatment ([5]; 5 uMol/kg i.d.): 370 beats/min
B.P. Fall (%) ([5]; 10 uMol/kg i.d.): 22%
B.P. fall Dur. ([5]; 10 uMol/kg i.d.): 76 min
B.P. Fall (%) ([5]; 20 uMol/kg i.d.): 29%
B.P. fall Dur. ([5]; 20 uMol/kg i.d.): 100 min
B.P. Fall (%) [6]: 14-18%
B.P. fall Dur. [6]: 15 to 30 min
B.P. Fall (%) [7]: 8-10%
B.P. fall Dur. [7]: 10 to 15 min
Endothelin induced contraction [8]: inhibited significantly
Response to endothelin after washing the preparation ([8]; after washing): relaxation rather than contraction
antihistaminic activity [9]: significant antihistaminic activity
antihistaminic activity against histamine induced bronchoconstriction [10]: some antihistaminic activity
NE induced contraction [11]: inhibited
reduction of the fall in pressure ([12]; pretreatment with KATP blocker glibenclamide): only partially reduced
alteration of antihypertensive effect ([12]; pretreatment with atropine sulphate, mepyramine maleate, propranolol or yohimbine): failed to alter
Dur. [13]: 25 min
cardioprotective effect against myocardial stunning [14]: cardioprotective effect against myocardial stunning at a much smaller dose than antihypertensive dose
Percentage recovery 15 min. [15, 16]: 81.25%
Percentage recovery 30 min. [15, 16]: 87.15%
incidence of reperfusion induced arrhythmia ([15]; 0.001 ug/ml at reperfusion, up to 90 min global ischemia): abolished
Percentage recovery 15 min. [1]: 81.25%
Percentage recovery 30 min. [1]: 78.12%

O=C1CCCCN1CCCN1CCN(c2cccc(C(F)(F)F)c2)CC1 [Example 14, 1-[4-(3-trifluoromethylphenyl)piperazin-1-yl]-3-[2-oxopiperidin-1-yl]propane]
Dur. (min.) ([2]; 10.0 umol/kg i.v.): Tr

O=C1CCCN1CCCN1CCN(c2ccc(Cl)cc2)CC1 [Example 3, 1-[4-(4-chlorophenyl)piperazin-1-yl]-3-[2-oxopyrrolidin-1-yl]propane]
Percentage recovery 15 min. [1]: 87.50%
Percentage recovery 30 min. [1]: 120.80%

COC(=O)C1=C(C)NC(C)=C(C(=O)OC)C1c1ccccc1[N+](=O)[O-] [Nifedipine, reference compound]
Percentage recovery 15 min. [15, 17]: 0.66%
Percentage recovery 30 min. [15, 17]: 0.0%
